Laboratory results as given in patent US9073855B2, “BCL-2 selective apoptosis-inducing agents for the treatment of cancer and immune diseases” (AbbVie Inc., priority 2008, dated 2015).

Key:
Canine platelets = test: Platelet cell viability assay (platelet-rich plasma, Cell Titer Glo); format: cell-based; details: Canis lupus familiaris, 5 h, isolated canine platelets ex vivo, five hours at 37° C.
Protocol: After the incubation, platelets were equilibrated to room temperature for 20 minutes and then an equal volume of Cell Titer Glo reagent (Promega Corporation) was added. Samples were mixed for two minutes and then allowed to equilibrate for an additional 10 minutes at room temperature. The luminescence generated from the samples was quantitated using an LJL Analyst plate reader.
The effect of compounds on platelet survival can be directly evaluated ex vivo by examining the viability of isolated canine platelets in the presence of various concentrations of compound.

FL5.12/Bcl-2 cells = test: FL5.12/Bcl-2 cell viability assay under IL-3 withdrawal (CellTitre Glo); format: cell-based, murine; details: Mus musculus, IL-3 withdrawn 48 hrs, then 24 hrs with compound
Method in brief: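 Viability measured with CellTiter-Glo after 24 h compound treatment at various concentrations, following 48 h IL-3 withdrawal (no WEHI-3B medium). Cells: prolymphocytic mouse FL5.12 line stably transfected to overexpress Bcl-2, cultured at 37 °C, 5% CO2.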

GST-Bcl-XL = GST-Bcl-XL (Homo sapiens, UniProt Q07817); test: TR-FRET binding assay, GST-Bcl-XL with F-Bak peptide probe; details: TR-FRET Binding Affinity, GST-Bcl-XL, F-Bak peptide probe
Method in brief: (§1)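 Competitive TR-FRET: GST-fusion protein, fluorescent Bak peptide probe and Tb-labelled anti-GST antibody incubated with compound dilution series (starting 50 μM as 2× stock, 10% DMSO) for 3 h at RT. Excitation 340/35 nm; Ki derived via Wang's exact competitive-binding equation.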

GST-Bcl-2 = GST-Bcl-2 (Homo sapiens, UniProt P10415); test: TR-FRET binding assay, GST-Bcl-2 with F-Bak peptide probe; details: TR-FRET Binding Affinity, GST-Bcl-2, F-Bak peptide probe
Method in brief: as §1

Chain of GST-Bcl-XL (Q07817 whole entry, the tested form may be a part): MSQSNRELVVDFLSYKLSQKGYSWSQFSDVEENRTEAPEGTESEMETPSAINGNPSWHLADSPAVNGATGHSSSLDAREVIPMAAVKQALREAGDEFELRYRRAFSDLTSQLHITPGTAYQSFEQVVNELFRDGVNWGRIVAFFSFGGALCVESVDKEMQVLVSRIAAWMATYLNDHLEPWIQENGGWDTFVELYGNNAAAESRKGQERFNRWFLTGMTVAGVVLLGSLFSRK
Chain of GST-Bcl-2 (P10415 whole entry): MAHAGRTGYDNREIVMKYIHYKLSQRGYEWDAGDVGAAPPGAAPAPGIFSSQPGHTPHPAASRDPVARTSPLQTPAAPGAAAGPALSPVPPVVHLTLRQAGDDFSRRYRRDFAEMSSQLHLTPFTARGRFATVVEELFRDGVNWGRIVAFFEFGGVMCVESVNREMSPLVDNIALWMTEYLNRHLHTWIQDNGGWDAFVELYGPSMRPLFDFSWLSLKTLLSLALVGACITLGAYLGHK

Row | SMILES | EC50 (Canine platelets) [nM] | EC50 (FL5.12/Bcl-2 cells) [nM] | Ki (GST-Bcl-XL) [nM] | Ki (GST-Bcl-2) [nM]
1 | CC1(C)CCC(c2ccc(Cl)cc2)=C(CN2CCN(c3ccc(C(=O)NS(=O)(=O)c4ccc(NCCCN5CCOCC5)c([N+](=O)[O-])c4)c(Oc4cccc5[nH]ccc45)c3)CC2)C1 [Example 54, 4-(4-{[2-(4-chlorophenyl)-5,5-dimethylcyclohex-1-en-1-yl]methyl}piperazin-1-yl)-2-(1H-indol-4-yloxy)-N-({4-[(3-morpholin-4-ylpropyl)amino]-3-nitrophenyl}sulfonyl)benzamide] | > 50000 | 64 | 82 | 0.757
2 | CC1(C)CCC(CN2CCN(c3ccc(C(=O)NS(=O)(=O)c4ccc(NCCCN5CCOCC5)c([N+](=O)[O-])c4)c(Oc4cccc5[nH]ccc45)c3)CC2)=C(c2ccc(Cl)cc2)C1 [Example 55, 4-(4-{[2-(4-chlorophenyl)-4,4-dimethylcyclohex-1-en-1-yl]methyl}piperazin-1-yl)-2-(1H-indol-4-yloxy)-N-({4-[(3-morpholin-4-ylpropyl)amino]-3-nitrophenyl}sulfonyl)benzamide] | 36000 | 22 | 24.9 | 0.196
3 | CN(C)CCCNc1ccc(S(=O)(=O)NC(=O)c2ccc(N3CCN(CC4=C(c5ccc(Cl)cc5)CCC(C)(C)C4)CC3)cc2Oc2cccc3[nH]ccc23)cc1[N+](=O)[O-] [Example 56, 4-(4-{[2-(4-chlorophenyl)-5,5-dimethylcyclohex-1-en-1-yl]methyl}piperazin-1-yl)-N-[(4-{[3-(dimethylamino)propyl]amino}-3-nitrophenyl)sulfonyl]-2-(1H-indol-4-yloxy)benzamide] | 27000 | 49 | 12.9 | 0.268
4 | CN(C)CCCNc1ccc(S(=O)(=O)NC(=O)c2ccc(N3CCN(CC4=C(c5ccc(Cl)cc5)CC(C)(C)CC4)CC3)cc2Oc2cccc3[nH]ccc23)cc1[N+](=O)[O-] [Example 57, 4-(4-{[2-(4-chlorophenyl)-4,4-dimethylcyclohex-1-en-1-yl]methyl}piperazin-1-yl)-N-[(4-{[3-(dimethylamino)propyl]amino}-3-nitrophenyl)sulfonyl]-2-(1H-indol-4-yloxy)benzamide] | 16800 | 16 | 4.67 | 0.068
5 | COc1ccc(C2=C(CN3CCN(c4ccc(C(=O)NS(=O)(=O)c5ccc(NCCCN6CCCC6)c([N+](=O)[O-])c5)c(Oc5cccc6[nH]ccc56)c4)CC3)CCC(C)(C)C2)cc1 [Example 68, 2-(1H-indol-4-yloxy)-4-(4-{[2-(4-methoxyphenyl)-4,4-dimethylcyclohex-1-en-1-yl]methyl}piperazin-1-yl)-N-({3-nitro-4-[(3-pyrrolidin-1-ylpropyl)amino]phenyl}sulfonyl)benzamide] | > 50000 | 44 | 14 | 1.23
6 | CC1(C)CCC(CN2CCN(c3ccc(C(=O)NS(=O)(=O)c4ccc(NCCCN5CCCC5)c([N+](=O)[O-])c4)c(Oc4cccc5[nH]ccc45)c3)CC2)=C(c2ccc(C(F)(F)F)cc2)C1 [Example 69, 4-[4-({4,4-dimethyl-2-[4-(trifluoromethyl)phenyl]cyclohex-1-en-1-yl}methyl)piperazin-1-yl]-2-(1H-indol-4-yloxy)-N-({3-nitro-4-[(3-pyrrolidin-1-ylpropyl)amino]phenyl}sulfonyl)benzamide] | > 50000 | 75 | 92.1 | 1.25
7 | CC1(C)CCC(CN2CCN(c3ccc(C(=O)NS(=O)(=O)c4ccc(NCCCN5CCCC5)c([N+](=O)[O-])c4)c(Oc4cccc5[nH]ccc45)c3)CC2)=C(c2ccc(OC(F)(F)F)cc2)C1 [Example 70, 4-[4-({4,4-dimethyl-2-[4-(trifluoromethoxy)phenyl]cyclohex-1-en-1-yl}methyl)piperazin-1-yl]-2-(1H-indol-4-yloxy)-N-({3-nitro-4-[(3-pyrrolidin-1-ylpropyl)amino]phenyl}sulfonyl)benzamide] | > 50000 | 111 | 74.4 | 1.19
8 | CC1(C)CCC(CN2CCN(c3ccc(C(=O)NS(=O)(=O)c4ccc(NCCCN5CCCC5)c([N+](=O)[O-])c4)c(Oc4cccc5[nH]ccc45)c3)CC2)=C(c2cccc(C(F)(F)F)c2)C1 [Example 71, 4-[4-({4,4-dimethyl-2-[3-(trifluoromethyl)phenyl]cyclohex-1-en-1-yl}methyl)piperazin-1-yl]-2-(1H-indol-4-yloxy)-N-({3-nitro-4-[(3-pyrrolidin-1-ylpropyl)amino]phenyl}sulfonyl)benzamide] | > 50000 | 460 | > 660 | 6.23
9 | CC1(C)CCC(CN2CCN(c3ccc(C(=O)NS(=O)(=O)c4ccc(NCCCN5CCCC5)c([N+](=O)[O-])c4)c(Oc4cccc5[nH]ccc45)c3)CC2)=C(c2cccc(F)c2)C1 [Example 72, 4-(4-{[2-(3-fluorophenyl)-4,4-dimethylcyclohex-1-en-1-yl]methyl}piperazin-1-yl)-2-(1H-indol-4-yloxy)-N-({3-nitro-4-[(3-pyrrolidin-1-ylpropyl)amino]phenyl}sulfonyl)benzamide] | > 50000 | 154 | 52.4 | 3.02
10 | CC1(C)CCC(CN2CCN(c3ccc(C(=O)NS(=O)(=O)c4ccc(NCCCN5CCCC5)c([N+](=O)[O-])c4)c(Oc4cccc5[nH]ccc45)c3)CC2)=C(c2ccc(F)cc2)C1 [Example 73, 4-(4-{[2-(4-fluorophenyl)-4,4-dimethylcyclohex-1-en-1-yl]methyl}piperazin-1-yl)-2-(1H-indol-4-yloxy)-N-({3-nitro-4-[(3-pyrrolidin-1-ylpropyl)amino]phenyl}sulfonyl)benzamide] | 23200 | 140 | 16.9 | 1.7
11 | CN1CCC(Nc2ccc(S(=O)(=O)NC(=O)c3ccc(N4CCN(CC5=C(c6ccc(Cl)cc6)CC(C)(C)CC5)CC4)cc3Oc3ccc4[nH]ccc4c3)cc2S(=O)(=O)C(F)(F)Cl)CC1 [Example 74, N-({3-{[chloro(difluoro)methyl]sulfonyl}-4-[(1-methylpiperidin-4-yl)amino]phenyl}sulfonyl)-4-(4-{[2-(4-chlorophenyl)-4,4-dimethylcyclohex-1-en-1-yl]methyl}piperazin-1-yl)-2-(1H-indol-5-yloxy)benzamide] | 16700 | 8 | 25.2 | 0.02
12 | CN1CCC(Nc2ccc(S(=O)(=O)NC(=O)c3ccc(N4CCN(CC5=C(c6ccc(Cl)cc6)CCCC5)CC4)cc3Oc3ccc4[nH]ccc4c3)cc2[N+](=O)[O-])CC1 [Example 75, 4-(4-{[2-(4-chlorophenyl)cyclohex-1-en-1-yl]methyl}piperazin-1-yl)-2-(1H-indol-5-yloxy)-N-({4-[(1-methylpiperidin-4-yl)amino]-3-nitrophenyl}sulfonyl)benzamide] | 17700 | 22 | 107 | 0.125
13 | CN1CCN(CCCNc2ccc(S(=O)(=O)NC(=O)c3ccc(N4CCN(Cc5ccccc5-c5ccc(Cl)cc5)CC4)cc3Oc3ccccc3)cc2[N+](=O)[O-])CC1 [Example 86, 4-{4-[(4′-chloro-1,1′-biphenyl-2-yl)methyl]piperazin-1-yl}-N-[(4-{[3-(4-methylpiperazin-1-yl)propyl]amino}-3-nitrophenyl)sulfonyl]-2-phenoxybenzamide] | 36300 | 74 | 10.5 | 0.212
14 | CN1CCC(CNc2ccc(S(=O)(=O)NC(=O)c3ccc(N4CCN(Cc5ccccc5-c5ccc(Cl)cc5)CC4)cc3Oc3ccccc3)cc2[N+](=O)[O-])CC1 [Example 88, 4-{4-[(4′-chloro-1,1′-biphenyl-2-yl)methyl]piperazin-1-yl}-N-[(4-{[(1-methylpiperidin-4-yl)methyl]amino}-3-nitrophenyl)sulfonyl]-2-phenoxybenzamide] | 19900 | 32 | 4.64 | 0.069
15 | CN1CCC(Nc2ccc(S(=O)(=O)NC(=O)c3ccc(N4CCN(Cc5ccccc5-c5ccc(Cl)cc5)CC4)cc3Oc3ccccc3)cc2[N+](=O)[O-])CC1 [Example 89, 4-{4-[(4′-chloro-1,1′-biphenyl-2-yl)methyl]piperazin-1-yl}-N-({4-[(1-methylpiperidin-4-yl)amino]-3-nitrophenyl}sulfonyl)-2-phenoxybenzamide] | 32000 | 65 | 7.45 | 0.129
16 | CN(C)CCCOc1ccc(S(=O)(=O)NC(=O)c2ccc(N3CCN(Cc4ccccc4-c4ccc(Cl)cc4)CC3)cc2Oc2ccccc2)cc1[N+](=O)[O-] [Example 94, 4-{4-[(4′-chloro-1,1′-biphenyl-2-yl)methyl]piperazin-1-yl}-N-({4-[3-(dimethylamino)propoxy]-3-nitrophenyl}sulfonyl)-2-phenoxybenzamide] | 23800 | 40 | 2.32 | 0.07
